Experiments:
[1] = target: Myosin light chain kinase 2, skeletal/cardiac muscle (Homo sapiens) (UniProt Q9H1R3); settings: Compound concentration 1.0 uM
[2] = target: Bone morphogenetic protein receptor type-2 (Homo sapiens) (UniProt Q13873); assay: BMPR2 Invitrogen Lab (UK) kinase screen (BI); settings: Compound concentration 1.0 uM
[3] = target: AMPK alpha2/beta2/gamma3 (Homo sapiens) (UniProt P54646+O43741+Q9UGI9); settings: Compound concentration 1.0 uM
[4] = target: Calcium/calmodulin-dependent protein kinase type 1G (Homo sapiens) (UniProt Q96NX5); settings: Compound concentration 1.0 uM
[5] = target: Serine/threonine-protein kinase pim-2 (Homo sapiens) (UniProt Q9P1W9); settings: Compound concentration 1.0 uM
Chain of Serine/threonine-protein kinase pim-2 (Homo sapiens) (Q9P1W9 whole entry, looked up, canonical isoform): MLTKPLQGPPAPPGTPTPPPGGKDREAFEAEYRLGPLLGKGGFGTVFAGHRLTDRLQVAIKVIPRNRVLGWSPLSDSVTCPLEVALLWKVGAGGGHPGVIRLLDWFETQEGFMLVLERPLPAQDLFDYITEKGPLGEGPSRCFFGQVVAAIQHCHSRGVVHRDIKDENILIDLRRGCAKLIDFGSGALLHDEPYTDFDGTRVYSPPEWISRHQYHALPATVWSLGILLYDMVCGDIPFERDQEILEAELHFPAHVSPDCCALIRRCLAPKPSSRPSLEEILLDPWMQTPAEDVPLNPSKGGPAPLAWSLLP

[6] = target: Tyrosine-protein kinase receptor UFO (Homo sapiens) (UniProt P30530)
Chain of Tyrosine-protein kinase receptor UFO (Homo sapiens) (P30530 whole entry): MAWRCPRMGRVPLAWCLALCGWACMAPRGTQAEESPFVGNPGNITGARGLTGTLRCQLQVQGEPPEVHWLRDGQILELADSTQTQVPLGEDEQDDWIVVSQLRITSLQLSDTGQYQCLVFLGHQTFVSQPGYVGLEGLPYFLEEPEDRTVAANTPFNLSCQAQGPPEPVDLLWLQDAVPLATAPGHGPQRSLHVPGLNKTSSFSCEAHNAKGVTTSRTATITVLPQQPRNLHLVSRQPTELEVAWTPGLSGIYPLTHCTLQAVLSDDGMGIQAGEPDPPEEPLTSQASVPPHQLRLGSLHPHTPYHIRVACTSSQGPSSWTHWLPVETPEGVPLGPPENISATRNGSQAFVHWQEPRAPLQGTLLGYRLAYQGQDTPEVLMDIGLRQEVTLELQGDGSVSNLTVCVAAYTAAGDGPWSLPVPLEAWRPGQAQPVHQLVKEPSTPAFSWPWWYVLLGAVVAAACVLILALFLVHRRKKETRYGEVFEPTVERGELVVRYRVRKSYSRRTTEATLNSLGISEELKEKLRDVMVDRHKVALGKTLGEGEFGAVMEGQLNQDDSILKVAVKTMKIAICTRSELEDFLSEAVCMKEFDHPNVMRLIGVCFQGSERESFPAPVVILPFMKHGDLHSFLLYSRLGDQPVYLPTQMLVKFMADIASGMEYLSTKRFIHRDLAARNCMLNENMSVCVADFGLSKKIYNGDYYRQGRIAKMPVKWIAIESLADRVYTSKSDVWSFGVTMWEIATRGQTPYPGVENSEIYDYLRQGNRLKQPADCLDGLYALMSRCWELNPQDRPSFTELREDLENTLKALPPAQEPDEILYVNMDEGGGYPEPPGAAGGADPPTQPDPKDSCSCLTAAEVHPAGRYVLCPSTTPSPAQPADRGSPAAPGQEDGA

[7] = target: Phosphatidylinositol 4-phosphate 5-kinase type-1 alpha (Homo sapiens) (UniProt Q99755); assay: PIP5K1A Invitrogen Lab (UK) kinase screen (BI); settings: Compound concentration 1.0 uM
Chain of Phosphatidylinositol 4-phosphate 5-kinase type-1 alpha (Homo sapiens) (Q99755 whole entry): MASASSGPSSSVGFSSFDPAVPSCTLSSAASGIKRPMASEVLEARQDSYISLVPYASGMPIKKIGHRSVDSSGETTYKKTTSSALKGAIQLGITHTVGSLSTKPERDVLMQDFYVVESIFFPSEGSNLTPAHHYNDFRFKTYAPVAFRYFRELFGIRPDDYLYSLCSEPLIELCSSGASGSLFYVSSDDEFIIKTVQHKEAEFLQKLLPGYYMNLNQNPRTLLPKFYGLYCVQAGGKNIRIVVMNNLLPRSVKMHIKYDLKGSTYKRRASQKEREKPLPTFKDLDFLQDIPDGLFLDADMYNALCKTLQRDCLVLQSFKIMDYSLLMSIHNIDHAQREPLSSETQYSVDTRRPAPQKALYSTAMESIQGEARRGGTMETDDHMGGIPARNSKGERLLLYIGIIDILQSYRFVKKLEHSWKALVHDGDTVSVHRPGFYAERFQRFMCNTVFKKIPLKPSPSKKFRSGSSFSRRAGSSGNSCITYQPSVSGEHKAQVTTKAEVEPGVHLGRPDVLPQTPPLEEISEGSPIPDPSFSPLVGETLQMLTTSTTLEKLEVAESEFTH

[8] = target: Sodium-dependent serotonin transporter (Homo sapiens) (UniProt P31645); settings: Compound concentration 10.0 uM
[9] = target: Ephrin type-A receptor 7 (Homo sapiens) (UniProt Q15375); settings: Compound concentration 1.0 uM
[10] = target: Ribosomal protein S6 kinase alpha-5 (Homo sapiens) (UniProt O75582); assay: RPS6KA5 Invitrogen Lab (UK) kinase screen (BI); settings: Compound concentration 1.0 uM
[11] = target: Serine/threonine-protein kinase 3 (Homo sapiens) (UniProt Q13188); settings: Compound concentration 10.0 uM
Chain of Serine/threonine-protein kinase 3 (Homo sapiens) (Q13188 whole entry): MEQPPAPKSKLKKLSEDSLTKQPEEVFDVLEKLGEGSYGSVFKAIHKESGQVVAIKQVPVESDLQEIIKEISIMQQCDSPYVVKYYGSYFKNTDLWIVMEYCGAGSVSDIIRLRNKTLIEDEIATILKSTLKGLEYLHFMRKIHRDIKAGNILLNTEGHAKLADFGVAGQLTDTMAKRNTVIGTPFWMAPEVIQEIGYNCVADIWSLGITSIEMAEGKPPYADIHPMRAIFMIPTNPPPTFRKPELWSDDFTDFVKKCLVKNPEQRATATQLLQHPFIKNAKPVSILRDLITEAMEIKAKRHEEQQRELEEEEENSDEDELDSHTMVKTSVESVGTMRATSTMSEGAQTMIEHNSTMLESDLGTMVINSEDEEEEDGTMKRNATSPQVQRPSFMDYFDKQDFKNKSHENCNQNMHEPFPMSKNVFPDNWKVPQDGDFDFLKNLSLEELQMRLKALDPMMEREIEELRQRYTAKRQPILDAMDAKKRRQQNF

[12] = target: Serine/threonine-protein kinase SIK3 (Homo sapiens) (UniProt Q9Y2K2); assay: SIK3 Invitrogen Lab (UK) kinase screen (BI); settings: Compound concentration 1.0 uM
[13] = target: Alpha-1B adrenergic receptor (Homo sapiens) (UniProt P35368); settings: Compound concentration 10.0 uM
[14] = target: Serine/threonine-protein kinase TAO2 (Homo sapiens) (UniProt Q9UL54); settings: Compound concentration 1.0 uM
[15] = target: Delta-type opioid receptor (Homo sapiens) (UniProt P41143); settings: Compound concentration 10.0 uM
[16] = target: Serine/threonine-protein kinase Nek2 (Homo sapiens) (UniProt P51955); assay: NEK2A DUNDEE kinase screen (BI); settings: Compound concentration 10.0 uM
[17] = target: Ephrin type-B receptor 4 (Homo sapiens) (UniProt P54760); settings: Compound concentration 1.0 uM
[18] = target: MAP/microtubule affinity-regulating kinase 3 (Homo sapiens) (UniProt P27448); settings: Compound concentration 1.0 uM
[19] = target: Tyrosine-protein kinase ABL1 (Homo sapiens) (UniProt P00519)
Chain of Tyrosine-protein kinase ABL1 (Homo sapiens) (P00519 whole entry): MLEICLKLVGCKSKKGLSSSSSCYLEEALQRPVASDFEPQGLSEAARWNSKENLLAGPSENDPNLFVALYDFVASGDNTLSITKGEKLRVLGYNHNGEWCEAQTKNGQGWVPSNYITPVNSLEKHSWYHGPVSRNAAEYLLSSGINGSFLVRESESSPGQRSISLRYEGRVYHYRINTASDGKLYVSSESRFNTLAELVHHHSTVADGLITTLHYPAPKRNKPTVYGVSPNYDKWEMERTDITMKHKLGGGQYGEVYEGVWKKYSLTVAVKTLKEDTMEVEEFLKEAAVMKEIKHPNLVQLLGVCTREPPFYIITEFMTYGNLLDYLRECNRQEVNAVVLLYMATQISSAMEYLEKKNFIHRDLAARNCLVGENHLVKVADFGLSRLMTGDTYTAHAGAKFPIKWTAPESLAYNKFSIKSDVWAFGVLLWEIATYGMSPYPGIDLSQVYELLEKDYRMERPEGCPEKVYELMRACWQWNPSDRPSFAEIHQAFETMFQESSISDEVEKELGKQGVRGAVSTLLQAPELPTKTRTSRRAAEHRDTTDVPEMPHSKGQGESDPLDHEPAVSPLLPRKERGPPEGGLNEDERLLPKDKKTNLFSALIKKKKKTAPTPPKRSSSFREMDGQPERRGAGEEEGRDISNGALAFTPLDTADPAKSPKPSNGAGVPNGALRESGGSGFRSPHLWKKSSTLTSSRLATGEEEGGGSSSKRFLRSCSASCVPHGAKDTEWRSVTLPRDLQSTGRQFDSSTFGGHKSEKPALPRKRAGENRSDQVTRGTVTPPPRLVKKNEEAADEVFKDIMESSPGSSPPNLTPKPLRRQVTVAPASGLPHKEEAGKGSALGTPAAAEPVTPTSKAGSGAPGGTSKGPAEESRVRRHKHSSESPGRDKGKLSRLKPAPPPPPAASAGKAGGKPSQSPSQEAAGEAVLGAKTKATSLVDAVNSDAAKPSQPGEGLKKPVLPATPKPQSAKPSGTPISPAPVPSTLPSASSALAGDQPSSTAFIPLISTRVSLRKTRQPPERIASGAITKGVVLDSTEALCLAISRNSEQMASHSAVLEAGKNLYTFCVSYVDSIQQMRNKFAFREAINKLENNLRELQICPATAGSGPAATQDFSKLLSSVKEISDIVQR

[20] = target: Aurora kinase B (Homo sapiens) (UniProt Q96GD4); assay: AURORA B DUNDEE kinase screen (BI); settings: Compound concentration 10.0 uM
[21] = target: D(1B) dopamine receptor (Homo sapiens) (UniProt P21918); settings: Compound concentration 10.0 uM
Chain of D(1B) dopamine receptor (Homo sapiens) (P21918 whole entry): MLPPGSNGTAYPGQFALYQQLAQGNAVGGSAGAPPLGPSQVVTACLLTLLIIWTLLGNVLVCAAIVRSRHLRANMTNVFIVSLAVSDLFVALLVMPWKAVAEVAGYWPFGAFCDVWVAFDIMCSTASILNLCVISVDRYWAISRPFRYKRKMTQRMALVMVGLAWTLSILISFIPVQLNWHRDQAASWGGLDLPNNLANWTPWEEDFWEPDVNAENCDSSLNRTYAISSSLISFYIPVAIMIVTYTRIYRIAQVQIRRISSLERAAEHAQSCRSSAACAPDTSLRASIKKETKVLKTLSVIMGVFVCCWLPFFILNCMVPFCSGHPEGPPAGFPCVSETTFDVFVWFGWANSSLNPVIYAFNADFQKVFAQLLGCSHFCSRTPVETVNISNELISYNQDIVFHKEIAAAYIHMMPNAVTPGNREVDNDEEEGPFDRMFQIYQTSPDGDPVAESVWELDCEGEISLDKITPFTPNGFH

[22] = target: Serine/threonine-protein kinase pim-2 (Homo sapiens) (UniProt Q9P1W9); settings: Compound concentration 10.0 uM
[23] = target: Casein kinase I isoform epsilon (Homo sapiens) (UniProt P49674); assay: CSNK1E Invitrogen Lab (UK) kinase screen (BI); settings: Compound concentration 1.0 uM
[24] = target: Mitogen-activated protein kinase kinase kinase 5 (Homo sapiens) (UniProt Q99683); settings: Compound concentration 1.0 uM
[25] = target: Death-associated protein kinase 2 (Homo sapiens) (UniProt Q9UIK4); assay: DAPK2 Invitrogen Lab (UK) kinase screen (BI); settings: Compound concentration 1.0 uM
Chain of Death-associated protein kinase 2 (Homo sapiens) (Q9UIK4 whole entry, looked up): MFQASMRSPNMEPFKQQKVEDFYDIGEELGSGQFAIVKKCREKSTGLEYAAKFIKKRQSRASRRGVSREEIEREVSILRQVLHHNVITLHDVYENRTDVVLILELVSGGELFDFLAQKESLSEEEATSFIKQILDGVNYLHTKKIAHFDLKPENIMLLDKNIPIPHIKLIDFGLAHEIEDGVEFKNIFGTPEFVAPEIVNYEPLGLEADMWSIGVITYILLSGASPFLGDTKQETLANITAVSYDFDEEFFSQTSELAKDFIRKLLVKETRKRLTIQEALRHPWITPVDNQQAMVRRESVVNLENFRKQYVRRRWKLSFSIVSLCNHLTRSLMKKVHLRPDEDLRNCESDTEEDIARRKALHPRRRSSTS

[26] = target: MAP kinase-interacting serine/threonine-protein kinase 2 (Homo sapiens) (UniProt Q9HBH9); assay: MKNK2 (MNK2) Invitrogen Lab (UK) kinase screen (BI); settings: Compound concentration 1.0 uM
[27] = target: Proto-oncogene tyrosine-protein kinase Src (Homo sapiens) (UniProt P12931); assay: SRC DUNDEE kinase screen (BI); settings: Gallus gallus; Compound concentration 10.0 uM
[28] = target: Serine/threonine-protein kinase 3 (Homo sapiens) (UniProt Q13188); assay: STK3 Invitrogen Lab (UK) kinase screen (BI); settings: Compound concentration 1.0 uM
[29] = target: Serine/threonine-protein kinase 24 (Homo sapiens) (UniProt Q9Y6E0); settings: Compound concentration 1.0 uM
[30] = target: T1, D(4) dopamine receptor (Homo sapiens) (UniProt P21917); settings: Compound concentration 10.0 uM
T1 sequence (whole entry): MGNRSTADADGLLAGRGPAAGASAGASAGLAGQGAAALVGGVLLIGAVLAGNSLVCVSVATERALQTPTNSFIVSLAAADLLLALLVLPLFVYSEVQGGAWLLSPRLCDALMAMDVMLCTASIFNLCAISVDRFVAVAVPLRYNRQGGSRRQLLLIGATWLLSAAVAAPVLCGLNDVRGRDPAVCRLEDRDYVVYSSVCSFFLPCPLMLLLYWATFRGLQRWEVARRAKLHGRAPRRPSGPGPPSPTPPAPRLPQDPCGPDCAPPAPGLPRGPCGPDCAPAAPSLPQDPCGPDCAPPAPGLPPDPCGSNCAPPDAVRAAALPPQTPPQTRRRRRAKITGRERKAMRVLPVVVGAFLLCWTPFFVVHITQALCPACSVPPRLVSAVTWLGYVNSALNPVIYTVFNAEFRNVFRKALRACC

[31] = target: Dual specificity protein kinase TTK (Homo sapiens) (UniProt P33981); assay: TTK Invitrogen Lab (UK) kinase screen (BI); settings: Compound concentration 1.0 uM
[32] = target: Leukotriene C4 synthase (Cavia porcellus) (UniProt A6XA80); settings: Compound concentration 10.0 uM
Chain of Leukotriene C4 synthase (Cavia porcellus) (A6XA80 whole entry): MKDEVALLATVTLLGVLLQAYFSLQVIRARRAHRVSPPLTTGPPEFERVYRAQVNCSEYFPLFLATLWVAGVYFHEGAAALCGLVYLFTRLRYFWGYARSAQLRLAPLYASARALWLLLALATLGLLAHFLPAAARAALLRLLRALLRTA

[33] = target: Muscarinic acetylcholine receptor M1 (Homo sapiens) (UniProt P11229); settings: Compound concentration 10.0 uM
[34] = target: Activin receptor type-2B (Homo sapiens) (UniProt Q13705); settings: Compound concentration 1.0 uM
[35] = target: Mitogen-activated protein kinase 8 (Homo sapiens) (UniProt P45983); assay: JNK1A1SAPK1C DUNDEE kinase screen (BI); settings: Compound concentration 10.0 uM
[36] = target: PI3K p110 beta/p85 alpha (Homo sapiens) (UniProt P27986+P42338); assay: PIK3CBPIK3RI Invitrogen Lab (UK) kinase screen (BI); assay type: protein-complex assay; settings: Compound concentration 1.0 uM
[37] = target: NUAK family SNF1-like kinase 1 (Homo sapiens) (UniProt O60285); assay: NUAK1 Invitrogen Lab (UK) kinase screen (BI); settings: Compound concentration 1.0 uM
[38] = target: Dual specificity mitogen-activated protein kinase kinase 5 (Homo sapiens) (UniProt Q13163); assay: MAP2K5 Invitrogen Lab (UK) kinase screen (BI); settings: Compound concentration 1.0 uM

Chain of Myosin light chain kinase 2, skeletal/cardiac muscle (Homo sapiens) (Q9H1R3 whole entry): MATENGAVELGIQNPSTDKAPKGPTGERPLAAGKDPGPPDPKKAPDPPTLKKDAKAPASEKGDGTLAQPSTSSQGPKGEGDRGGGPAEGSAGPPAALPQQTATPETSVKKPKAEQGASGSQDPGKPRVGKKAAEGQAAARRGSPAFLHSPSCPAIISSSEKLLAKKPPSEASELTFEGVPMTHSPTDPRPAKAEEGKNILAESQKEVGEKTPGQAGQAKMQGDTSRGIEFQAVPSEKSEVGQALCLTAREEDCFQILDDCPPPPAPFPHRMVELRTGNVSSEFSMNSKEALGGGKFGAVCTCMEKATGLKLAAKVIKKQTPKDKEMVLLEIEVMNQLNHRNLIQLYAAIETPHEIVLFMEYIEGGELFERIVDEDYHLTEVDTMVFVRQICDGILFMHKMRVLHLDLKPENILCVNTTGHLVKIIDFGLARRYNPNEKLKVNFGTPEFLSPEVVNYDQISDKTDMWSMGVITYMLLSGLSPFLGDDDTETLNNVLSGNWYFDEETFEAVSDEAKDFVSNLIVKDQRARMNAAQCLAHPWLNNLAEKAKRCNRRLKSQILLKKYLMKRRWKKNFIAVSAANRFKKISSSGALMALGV

CCC(F)(F)c1cc(N2CCC(S(C)(=O)=O)CC2)nc2sc(C(N)=O)c(N)c12 [BI-605906]
inactive: residual activity [1] 98% | residual activity [2] 65% | residual activity [3] 99% | residual activity [4] 90% | residual activity [5] 99% | residual activity ([6]; Compound concentration 1.0 uM) 98% | residual activity ([6]; Compound concentration 10.0 uM) 85% | residual activity [7] 83% | inhibition [8] 8.94% | residual activity [9] 87% | residual activity [10] 102% | residual activity [11] 91% | residual activity [12] 79% | inhibition [13] -0.02% | residual activity [14] 101% | inhibition [15] 3.97% | residual activity [16] 74.8% | residual activity [17] 90% | residual activity [18] 90% | residual activity ([19]; Compound concentration 1.0 uM) 95% | residual activity ([19]; Compound concentration 10.0 uM) 77% | residual activity [20] 60.9% | inhibition [21] 2.13% | residual activity [22] 101% | residual activity [23] 75% | residual activity [24] 99% | residual activity [25] 79% | residual activity [26] 68% | residual activity [27] 73.8% | residual activity [28] 103% | residual activity [29] 101% | residual activity [30] 95% | residual activity [31] 75% | residual activity [32] 93% | inhibition [33] 8.33% | residual activity [34] 91% | residual activity [35] 93.8% | residual activity [36] 124% | residual activity [37] 84% | residual activity [38] 107%
